According to patent publication US5994342A, “3-(substituted methyl)-4-oxa-1-azabicyclo[3.2.0]heptan-7-one derivatives useful as antitumor agents” (priority 1994, dated 1999):
Converted amounts (≈) assume the structure as drawn.

Assays:
[1] = system: KB cells; assay: In vitro KB cell cytotoxicity assay (crystal violet); assay type: cell-based; conditions: Homo sapiens, 72 h, 3 days culture, read-out: KB Cell Cytotoxicity TD50
Procedure: In Vitro KB Cell Cytotoxicity Assay In vitro KB cell cytoxocity assay was done by modification of the crystal violet assay ([…] et al., Anal Biochem., 159, 109-113 (1986). KB cells were cultivated in Eagles minimum essential medium supplemented with 10% calf serum and incubated at 37° C. in a humidified 5% CO2 atmosphere to prepare a cell stock. Cells were counted using a neubauer hemocytometer and seeded in 96 well plates at 100 μl of 3×10^4 cells/ml and cultured for one day. […] Control wells were identical except that test compound was absent. These were cultured for three days. Then the cells were fixed with addition of 20 μl of 25% glutaraldehyde for 15 minutes, washed with water and dried. Then stained with 100 μl of 0.05% crystal violet for 15 minutes, washed with water and dried. The wells are eluted with […] of 0.05M NaH2 PO4 /ethanol (1:1 v/v) and read at OD540 on a multiscan spectrophotometer. Inhibition value of cell growth was calculated based on optical density using the following equation; [formula] TD50 values were calculated from linear regression ines of the log-logit plot.

[2] = system: Sarcoma 180; assay: In vivo antitumor activity against Sarcoma 180; design: species or system male ICR mice; conditions: i.p., days 1, 5 and 9
Procedure: In Vivo Antitumor Activity Against Sarcoma 180
The compounds of general formula (I) were tested in vivo against Sarcoma 180 xenografted tumor to mice as illustrated herein after.
Sarcoma 180, 5×10^6 cells were inoculated by S.C. to male ICR mice (6 week old) on day 0. Drugs were administered on days 1, 5 and 9. Mice were killed and tumor weight was measured on day 12 after transplantation. The percentage inhibition of tumor growth was calculated from the mean tumor weight of the treated group compared with that of the control group. Number of mice used in each group was between 6 to 7.

[3] = Mus musculus, Sarcoma-180, ip, 288 h, 12.5 mg/kg/day, tumor s.c., tumor weight day 12, read-out: % Inhibition of tumor growth
[4] = Mus musculus, Sarcoma-180, ip, 288 h, 25 mg/kg/day, tumor s.c., tumor weight day 12, read-out: % Inhibition of tumor growth
[5] = Mus musculus, Sarcoma-180, ip, 288 h, 50 mg/kg/day, tumor s.c., tumor weight day 12, read-out: % Inhibition of tumor growth
[6] = Mus musculus, Sarcoma-180, ip, 288 h, 100 mg/kg/day, tumor s.c., tumor weight day 12, read-out: % Inhibition of tumor growth
[7] = Mus musculus, Sarcoma-180, ip, 288 h, 40 mg/kg/day, tumor s.c., tumor weight day 12, read-out: % Inhibition of tumor growth
[8] = Mus musculus, Sarcoma-180, ip, 288 h, 80 mg/kg/day, tumor s.c., tumor weight day 12, read-out: % Inhibition of tumor growth

SMILES: C[C@H](N)C(=O)NCC(=O)OC[C@H]1CN2C(=O)C[C@@H]2O1.Cl (mixture of isomers) [Example 41B, (3RS,5SR)-3-[N-(L-2-Aminopropanoyl)aminoacetyl]oxymethyl-4-oxa-1-azabicyclo[3.2.0]heptan-7-one hydrochloride]
- IC50 [1]: 0.295 µg/mL
- Mortality in 12 days ([2]; 12.5 mg/kg/day): 0/6
- Mortality in 12 days ([2]; 25 mg/kg/day): 0/6
- inhibition in vivo at 12.5 mg/kg [2, 3]: 43.9%
- inhibition in vivo at 25 mg/kg [2, 4]: 62.8%

SMILES: CC(C)[C@H](N)C(=O)NCC(=O)OC[C@H]1CN2C(=O)C[C@@H]2O1.Cl (mixture of isomers) [Example 42B, (3RS,5SR)-3-[N-(L-2-Amino-3-methylbutyryl)aminoacetyl]oxymethyl-4-oxa-1-azabicyclo[3.2.0]heptan-7-one hydrochloride]
- IC50 [1]: 0.388 µg/mL
- Mortality in 12 days ([2]; 12.5 mg/kg/day): 0/6
- Mortality in 12 days ([2]; 25 mg/kg/day): 0/6
- Mortality in 12 days ([2]; 50 mg/kg/day): 0/6
- inhibition in vivo at 12.5 mg/kg [2, 3]: 49.9%
- inhibition in vivo at 25 mg/kg [2, 4]: 69%
- inhibition in vivo at 50 mg/kg [2, 5]: 85.8%

SMILES: CC(C)[C@H](N)C(=O)NCC(=O)NC[C@@H]1CN2C(=O)C[C@H]2O1.Cl (mixture of isomers) [Example 45B, (3RS,5RS)-3-[N-(L-2-amino-3-methylbutyryl)aminoacetyl]aminomethyl-4-oxa-1-azabicyclo[3.2.0]heptan-7-one hydrochloride]
- IC50 [1]: 1.97 µg/mL
- Mortality in 12 days ([2]; 25 mg/kg/day): 0/6
- Mortality in 12 days ([2]; 50 mg/kg/day): 0/6
- inhibition in vivo at 25 mg/kg [2, 4]: 39.3%
- inhibition in vivo at 50 mg/kg [2, 5]: 81.7%

SMILES: C[C@H](N)C(=O)OC[C@H]1CN2C(=O)C[C@@H]2O1.Cl (mixture of isomers) [Example 48B, (3RS,5SR)-3-(L-2-Aminopropanoyl)oxymethyl-4-oxa-1-azabicyclo[3.2.0]heptan-7-one hydrochloride]
- IC50 [1]: 0.878 µg/mL
- Mortality in 12 days ([2]; 12.5 mg/kg/day): 0/6
- Mortality in 12 days ([2]; 25 mg/kg/day): 0/6
- Mortality in 12 days ([2]; 50 mg/kg/day): 2/6
- inhibition in vivo at 12.5 mg/kg [2, 3]: 44.9%
- inhibition in vivo at 25 mg/kg [2, 4]: 66.8%
- inhibition in vivo at 50 mg/kg [2, 5]: 77.3%

SMILES: C[C@@H](N)C(=O)OC[C@H]1CN2C(=O)C[C@@H]2O1.Cl (mixture of isomers) [Example 51B, (3RS,5SR)-3-(D-2-Aminopropanoyl)oxymethyl-4-oxa-1-azabicyclo[3.2.0]heptan-7-one hydrochloride]
- IC50 [1]: 0.867 µg/mL
- Mortality in 12 days ([2]; 12.5 mg/kg/day): 0/6
- Mortality in 12 days ([2]; 25 mg/kg/day): 0/6
- Mortality in 12 days ([2]; 50 mg/kg/day): 0/6
- Mortality in 12 days ([2]; 100 mg/kg/day): 5/6
- inhibition in vivo at 12.5 mg/kg [2, 3]: 40.9%
- inhibition in vivo at 25 mg/kg [2, 4]: 50.6%
- inhibition in vivo at 50 mg/kg [2, 5]: 82.4%
- inhibition in vivo at 100 mg/kg [2, 6]: 93.8%

SMILES: CC(C)[C@H](N)C(=O)OC[C@H]1CN2C(=O)C[C@@H]2O1.Cl (mixture of isomers) [Example 54B, (3RS,5SR)-3-(L-2-Amino-3-methylbutyryl)oxymethyl-4-oxa-1-azabicyclo[3.2.0]heptan-7-one hydrochloride]
- IC50 [1]: 1.9 µg/mL
- Mortality in 12 days ([2]; 25 mg/kg/day): 0/6
- Mortality in 12 days ([2]; 50 mg/kg/day): 0/6
- Mortality in 12 days ([2]; 100 mg/kg/day): 0/6
- inhibition in vivo at 25 mg/kg [2, 4]: 28.5%
- inhibition in vivo at 50 mg/kg [2, 5]: 53.8%
- inhibition in vivo at 100 mg/kg [2, 6]: 84.3%

SMILES: CC(C)[C@@H](N)C(=O)OC[C@H]1CN2C(=O)C[C@@H]2O1.Cl (mixture of isomers) [Example 60B, (3RS,5SR)-3-(D-2-Amino-3-methylbutyryl)oxymethyl-4-oxa-1-azabicyclo[3.2.0]heptan-7-one hydrochloride]
- IC50 [1]: 0.903 µg/mL
- Mortality in 12 days ([2]; 50 mg/kg/day): 0/6
- Mortality in 12 days ([2]; 100 mg/kg/day): 0/6
- inhibition in vivo at 50 mg/kg [2, 5]: 49.8%
- inhibition in vivo at 100 mg/kg [2, 6]: 77.7%

SMILES: N[C@@H](CC(=O)OC[C@H]1CN2C(=O)C[C@@H]2O1)C(=O)O (mixture of isomers) [Example 65B, (3RS,5SR)-3-(L-3-Amino-3-carboxypropanoyl)oxymethyl-4-oxa-1-azabicyclo[3.2.0]heptan-7-one]
- IC50 [1]: 0.451 µg/mL
- Mortality in 12 days ([2]; 100 mg/kg/day): 0/6
- inhibition in vivo at 100 mg/kg [2, 6]: 55%

SMILES: N[C@@H](CC(=O)O)C(=O)OC[C@H]1CN2C(=O)C[C@@H]2O1 (mixture of isomers) [Example 66B, (3RS,5SR)-3-(L-2-Amino-3-carboxypropanoyl)oxymethyl-4-oxa-1-azabicyclo[3.2.0]heptan-7-one]
- IC50 [1]: 0.204 µg/mL
- Mortality in 12 days ([2]; 6.3 mg/kg/day): 0/6
- Mortality in 12 days ([2]; 12.5 mg/kg/day): 0/6
- Mortality in 12 days ([2]; 25 mg/kg/day): 0/6
- inhibition in vivo at 6.3 mg/kg ([2]; Mus musculus, Sarcoma-180, ip, 288 h, 6.3 mg/kg/day, tumor s.c., tumor weight day 12, read-out: % Inhibition of tumor growth): 33.7%
- inhibition in vivo at 12.5 mg/kg [2, 3]: 53.2%
- inhibition in vivo at 25 mg/kg [2, 4]: 62.9%

SMILES: N[C@H](CCC(=O)OC[C@H]1CN2C(=O)C[C@@H]2O1)C(=O)O (mixture of isomers) [Example 68B, (3RS,5SR)-3-(D-4-Amino-4-carboxybutyryl)oxymethyl-4-oxa-1-azabicyclo[3.2.0]heptan-7-one]
- IC50 [1]: 0.189 µg/mL
- Mortality in 12 days ([2]; 12.5 mg/kg/day): 0/6
- Mortality in 12 days ([2]; 25 mg/kg/day): 0/6
- Mortality in 12 days ([2]; 50 mg/kg/day): 3/6
- inhibition in vivo at 12.5 mg/kg [2, 3]: 49.1%
- inhibition in vivo at 25 mg/kg [2, 4]: 69.7%
- inhibition in vivo at 50 mg/kg [2, 5]: 80.3%

SMILES: CCCCCC(=O)NC[C@@H]1CN2C(=O)C[C@H]2O1 (racemic) [Example 4, (3RS,5RS)-3-(N-Hexanoylaminomethyl)-4-oxa-1-azabicyclo[3.2.0]heptan-7-one]
- IC50 [1]: 0.312 µg/mL (≈ 1.3 µM)
- Mortality in 12 days ([2]; 100 mg/kg/day): 0/6
- inhibition in vivo at 100 mg/kg [2, 6]: 49.4%

SMILES: O=C(NC[C@@H]1CN2C(=O)C[C@H]2O1)C1CCCCC1 (racemic) [Example 6, (3RS,5RS)-3-(N-Cyclohexylcarbonylaminomethyl)-4-oxa-1-azabicyclo[3.2.0]heptan-7-one]
- IC50 [1]: 0.073 µg/mL (≈ 0.289 µM)
- Mortality in 12 days ([2]; 20 mg/kg/day): 0/6
- Mortality in 12 days ([2]; 40 mg/kg/day): 0/6
- Mortality in 12 days ([2]; 80 mg/kg/day): 0/6
- inhibition in vivo at 20 mg/kg ([2]; Mus musculus, Sarcoma-180, ip, 288 h, 20 mg/kg/day, tumor s.c., tumor weight day 12, read-out: % Inhibition of tumor growth): 32.1%
- inhibition in vivo at 40 mg/kg [2, 7]: 35.7%
- inhibition in vivo at 80 mg/kg [2, 8]: 43.3%

SMILES: O=C1C[C@H]2O[C@H](CNC(=O)C(F)(F)F)CN12 (racemic) [Example 7, (3RS,5RS)-3-[N-(Trifluoroacetyl)aminomethyl]-4-oxa-1-azabicyclo[3.2.0]heptan-7-one]
- IC50 [1]: 0.205 µg/mL (≈ 0.861 µM)
- Mortality in 12 days ([2]; 100 mg/kg/day): 2/6
- inhibition in vivo at 100 mg/kg [2, 6]: 39.8%

SMILES: O=C(CCl)NC[C@@H]1CN2C(=O)C[C@H]2O1 (racemic) [Example 8, (3RS,5RS)-3-(N-Chloroacetylaminomethyl)-4-oxa-1-azabicyclo[3.2.0]heptan-7-one]
- IC50 [1]: 0.084 µg/mL (≈ 0.384 µM)
- Mortality in 12 days ([2]; 8.8 mg/kg/day): 0/6
- Mortality in 12 days ([2]; 17.5 mg/kg/day): 0/6
- Mortality in 12 days ([2]; 35 mg/kg/day): 1/6
- inhibition in vivo at 8.8 mg/kg ([2]; Mus musculus, Sarcoma-180, ip, 288 h, 8.8 mg/kg/day, tumor s.c., tumor weight day 12, read-out: % Inhibition of tumor growth): 39%
- inhibition in vivo at 17.5 mg/kg ([2]; Mus musculus, Sarcoma-180, ip, 288 h, 17.5 mg/kg/day, tumor s.c., tumor weight day 12, read-out: % Inhibition of tumor growth): 51.3%
- inhibition in vivo at 35 mg/kg ([2]; Mus musculus, Sarcoma-180, ip, 288 h, 35 mg/kg/day, tumor s.c., tumor weight day 12, read-out: % Inhibition of tumor growth): 64%

SMILES: Cl.NC[C@@H]1CN2C(=O)C[C@H]2O1 (racemic) [Example 22, (3RS,5RS)-3-aminomethyl-4-oxa-1-azabicyclo[3.2.0]heptan-7-one hydrochloride]
- IC50 [1]: 0.344 µg/mL
- Mortality in 12 days ([2]; 40 mg/kg/day): 0/6
- Mortality in 12 days ([2]; 80 mg/kg/day): 0/6
- inhibition in vivo at 40 mg/kg [2, 7]: 26.7%
- inhibition in vivo at 80 mg/kg [2, 8]: 40.3%

SMILES: O=C(NC[C@@H]1CN2C(=O)C[C@H]2O1)c1ccccc1 (racemic) [Example 23, (3RS,5RS)-3-(N-Benzoylaminomethyl)-4-oxa-1-azabicyclo[3.2.0]heptan-7-one]
- IC50 [1]: 0.088 µg/mL (≈ 0.357 µM)
- Mortality in 12 days ([2]; 100 mg/kg/day): 0/6
- inhibition in vivo at 100 mg/kg [2, 6]: 27.8%
